Results from patent US20100080786A1, “Phenyl or Pyridinyl Substituted Indazoles Derivatives” (priority 2008, published 2010).

What follows are compounds tested against T1, Human Glucocorticoid Receptor (GR) (Homo sapiens, UniProt P04150) (assay: Human Glucocorticoid Receptor (GR) radioligand binding assay (3H-dexamethasone competition)). Settings: full length GR; 7 nM 3H-dexamethasone; 2 h at room temperature.
T1 construct: The full length GR was diluted to a final concentration of 3.3% (0.495 mg/ml) in assay buffer
T1 sequence (P04150 1-777): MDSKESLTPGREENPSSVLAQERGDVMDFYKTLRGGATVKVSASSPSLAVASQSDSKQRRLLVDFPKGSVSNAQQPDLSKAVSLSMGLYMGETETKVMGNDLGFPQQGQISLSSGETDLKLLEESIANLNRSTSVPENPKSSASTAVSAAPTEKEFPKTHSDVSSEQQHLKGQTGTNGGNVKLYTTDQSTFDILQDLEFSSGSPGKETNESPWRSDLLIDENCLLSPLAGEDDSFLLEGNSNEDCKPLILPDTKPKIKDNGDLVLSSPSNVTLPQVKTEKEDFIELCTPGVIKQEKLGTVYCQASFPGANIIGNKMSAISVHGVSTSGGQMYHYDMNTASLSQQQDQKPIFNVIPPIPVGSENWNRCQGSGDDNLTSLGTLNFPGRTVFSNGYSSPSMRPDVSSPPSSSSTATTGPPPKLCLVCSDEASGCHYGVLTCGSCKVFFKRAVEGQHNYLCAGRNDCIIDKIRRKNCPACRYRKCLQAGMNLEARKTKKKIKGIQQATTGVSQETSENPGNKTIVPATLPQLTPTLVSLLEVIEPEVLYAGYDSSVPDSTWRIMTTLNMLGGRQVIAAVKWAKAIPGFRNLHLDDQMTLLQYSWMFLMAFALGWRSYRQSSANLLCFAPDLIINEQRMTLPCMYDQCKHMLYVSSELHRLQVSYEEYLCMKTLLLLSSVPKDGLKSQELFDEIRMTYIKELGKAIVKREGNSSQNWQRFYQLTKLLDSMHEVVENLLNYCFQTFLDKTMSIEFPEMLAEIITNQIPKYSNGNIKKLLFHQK
Method: Human Glucocorticoid Receptor (GR) Assay
The radioligand GR binding assay is based on a competition assay using ^3H-labeled Dexamethasone. Dexamethasone is known to bind in the ligand binding domain of GR and compete for binding with endogenous ligands like e.g. cortisol (Necela, 2003). In the GR radioligand binding assay, test compounds were serially diluted in semi-log steps (10 concentrations) with a final concentration of 10 μM. Test compounds (1 μL) and controls (1 μL) in 100% DMSO were added to 96 Greiner V-bottom polypropylene plates. 0% control was 6.7% DMSO (final concentration in assay) and 100% control was 6.7 μM Dexamethasone.
The full length GR was diluted to a final concentration of 3.3% (0.495 mg/ml) in assay buffer (20 mM Tris-HCl, 1 mM EDTA, 10% (w/v) Glycerol, 20 mM Sodium molybdate, pH 7.4). 45 μL of GR was added to each well and the plates were incubated for 15 min at room temperature.
^3H-dexamethasone solution was diluted to a concentration of 70 nM in assay buffer (7 nM final assay concentration) and 5 μL was added to each well. The samples were mixed for 5 min using a plate shaker at 700 rpm, before incubation for 2 h at room temperature.
50 μL ice-cold charcoal solution (pH 7.4:2% Charcoal, 0.2% Dextran T70 in 20 mM Tris-HCl, 1 mM EDTA and 20 mM Sodium molybdate) was added to each well and the samples were mixed on plate shaker for 5 minutes.
The plate was then centrifuged for 1.5 min at 1500 rpm, the samples (80 μL) were is transferred from each well to a filter plate (Millipore, 0.45 μm, MHVBN45) on a vacuum manifold and then collected into new plates (Greiner, 96 well white/transparent, 655095). The filter plate was washed once with 20 μl of water and then 100 μL of scintillation liquid was added to each well and mixed by incubation on plate shaker for 5 min. Radioactivity was measured in a 1450 Microbeta Trilux Reader (Wallac) counting cpm for 2 minutes per well. The data obtained from each replicate experiment were analysed using the software ActivityBase, version 5.4.3 (ID Business Solutions Ltd) and IC50 values were calculated. Ref: Necela, B M, Cidlowski, J A, Trends Pharmacol Sci, 24: 58, 2003

IC50 | Compound
1.69 nM | C[C@H](NC(=O)C(C)(F)F)[C@H](Oc1ccc2c(cnn2-c2cccc(C(=O)NCCO)c2)c1)c1ccccc1 [Example 3, 3-[5-({(1R,2S)-2-[(2,2-difluoropropanoyl)amino]-1-phenylpropyl}oxy)-1H-indazol-1-yl]-N-(2-hydroxyethyl)benzamide]
1.61 nM | C[C@H](NC(=O)C(C)(F)F)[C@H](Oc1ccc2c(cnn2-c2cccc(C(=O)NCC(N)=O)c2)c1)c1ccccc1 [Example 4, N-(2-amino-2-oxoethyl)-3-[5-({(1R,2S)-2-[(2,2-difluoropropanoyl)amino]-1-phenylpropyl}oxy)-1H-indazol-1-yl]benzamide]
1.93 nM | C[C@H](NC(=O)c1cccc(-n2ncc3cc(O[C@H](c4ccccc4)[C@H](C)NC(=O)C(C)(F)F)ccc32)c1)C(N)=O [Example 5, N-[(1S)-2-amino-1-methyl-2-oxoethyl]-3-[5-({(1R,2S)-2-[(2,2-difluoropropanoyl)amino]-1-phenylpropyl}oxy)-1H-indazol-1-yl]benzamide]
5.06 nM | CC(=O)NCCNC(=O)c1cccc(-n2ncc3cc(O[C@H](c4ccccc4)[C@H](C)NC(=O)C(C)(F)F)ccc32)c1 [Example 6, N-[2-(acetylamino)ethyl]-3-[5-({(1R,2S)-2-[(2,2-difluoropropanoyl)amino]-1-phenylpropyl}oxy)-1H-indazol-1-yl]benzamide]
42.4 nM | C[C@H](NC(=O)C(C)(F)F)[C@H](Oc1ccc2c(cnn2-c2cccc(C(=O)NCc3n[nH]c4ccccc34)c2)c1)c1ccccc1 [Example 16, 3-[5-({(1R,2S)-2-[(2,2-difluoropropanoyl)amino]-1-phenylpropyl}oxy)-1H-indazol-1-yl]-N-(1H-indazol-3-ylmethyl)benzamide]
3.55 nM | C[C@H](NC(=O)C(C)(F)F)[C@H](Oc1ccc2c(cnn2-c2cccc(C(=O)N[C@@H](C(N)=O)c3ccccc3)c2)c1)c1ccccc1 [Example 17, N-[(1R)-2-amino-2-oxo-1-phenylethyl]-3-[5-({(1R,2S)-2-[(2,2-difluoropropanoyl)amino]-1phenylpropyl}oxy)-1H-indazol-1-yl]benzamide]
4.22 nM | C[C@H](NC(=O)C(C)(F)F)[C@H](Oc1ccc2c(cnn2-c2cccc(C(=O)N(C)CC(N)=O)c2)c1)c1ccccc1 [Example 18]
2.29 nM | C[C@H](NC(=O)C(C)(F)F)[C@H](Oc1ccc2c(cnn2-c2cccc(C(=O)NCCC(N)=O)c2)c1)c1ccccc1 [Example 19, N-(3-amino-3-oxopropyl)-3-[5-({(1R,2S)-2-[(2,2-difluoropropanoyl)amino]-1-phenylpropyl}oxy)-1H-indazol-1-yl]benzamide]
1.37 nM | COc1ccc([C@@H](Oc2ccc3c(cnn3-c3cccc(C(=O)NC4CCCC4)c3)c2)[C@H](C)NC(=O)C(C)(F)F)cn1 [Example 22, N-cyclopentyl-3-(5-{[(1R,2S)-2-[(2,2-difluoropropanoyl)amino]-1-(6-methoxypyridin-3-yl)propyl]oxy}-1H-indazol-1-yl)benzamide]
0.86 nM | COc1ccc([C@@H](Oc2ccc3c(cnn3-c3cccc(C(=O)Nc4cccnc4)c3)c2)[C@H](C)NC(=O)C(C)(F)F)cn1 [Example 23, 3-(5-{[(1R,2S)-2-[(2,2-difluoropropanoyl)amino]-1-(6-methoxypyridin-3-yl)propyl]oxy}-1H-indazol-1-yl)-N-(pyridin-3-yl)benzamide]
4.46 nM | COc1ccc([C@@H](Oc2ccc3c(cnn3-c3cccc(C(=O)NC4CCS(=O)(=O)C4)c3)c2)[C@H](C)NC(=O)C(C)(F)F)cn1 (stereo partly drawn) [Example 24, 3-(5-{[(1R,2S)-2-[(2,2-difluoropropanoyl)amino]-1-(6-methoxypyridin-3-yl)propyl]oxy}-1H-indazol-1-yl)-N-(1,1-dioxidotetrahydrothiophen-3-yl)benzamide]
2.99 nM | COc1ccc([C@@H](Oc2ccc3c(cnn3-c3cccc(C(=O)NC4CCOC4)c3)c2)[C@H](C)NC(=O)C(C)(F)F)cn1 (stereo partly drawn) [Example 25, 3-(5-{[(1R,2S)-2-[(2,2-difluoropropanoyl)amino]-1-(6-methoxypyridin-3-yl)propyl]oxy}-1H-indazol-1-yl)-N-(tetrahydrofuran-3-yl)benzamide]

Continued, compound first:

Compound | IC50
C[C@H](NC(=O)C(N)=O)[C@H](Oc1ccc2c(cnn2-c2cccc(C(=O)N3CCC[C@@H]3C(N)=O)c2)c1)c1ccccc1 [Example 2, N-[(1S,2R)-2-{[1-(3-{[(2R)-2-carbamoylpyrrolidin-1-yl]carbonyl}phenyl)-1H-indazol-5-yl]oxy}-1-methyl-2-phenylethyl]ethanediamide] | 19.9 nM
C[C@H](NC(=O)C(C)(F)F)[C@H](Oc1ccc2c(cnn2-c2cccc(C(=O)NCCN3CCNC3=O)c2)c1)c1ccccc1 [Example 7, 3-[5-({(1R,2S)-2-[(2,2-difluoropropanoyl)amino]-1-phenylpropyl}oxy)-1H-indazol-1-yl]-N-[2-(2-oxoimidazolidin-1-yl)ethyl]benzamide] | 16.9 nM
C[C@H](NC(=O)C(C)(F)F)[C@H](Oc1ccc2c(cnn2-c2cccc(C(=O)N3CCC[C@@H]3CO)c2)c1)c1ccccc1 [Example 8, 2,2-Difluoro-N-[(1S,2R)-2-{[1-(3-{[(2R)-2-(hydroxymethyl)pyrrolidin-1-yl]carbonyl}phenyl)-1H-indazol-5-yl]oxy}-1-methyl-2-phenylethyl]propanamide] | 6.88 nM
C[C@H](NC(=O)C(C)(F)F)[C@H](Oc1ccc2c(cnn2-c2cccc(C(=O)N3CC[C@@H](O)C3)c2)c1)c1ccccc1 [Example 9, 2,2-Difluoro-N-[(1S,2R)-2-{[1-(3-{[(3R)-3-hydroxypyrrolidin-1-yl]carbonyl}phenyl)-1H-indazol-5-yl]oxy}-1-methyl-2-phenylethyl]propanamide] | 5.65 nM
C[C@H](NC(=O)C(C)(F)F)[C@H](Oc1ccc2c(cnn2-c2cccc(C(=O)N3CCNC(=O)C3)c2)c1)c1ccccc1 [Example 12, 2,2-Difluoro-N-{(1S,2R)-1-methyl-2-[(1-{3-[(3-oxopiperazin-1-yl)carbonyl]phenyl}-1H-indazol-5-yl)oxy]-2-phenylethyl}propanamide] | 2.54 nM
C[C@H](NC(=O)C(C)(F)F)[C@H](Oc1ccc2c(cnn2-c2cccc(C(=O)NCCN3CCCC3=O)c2)c1)c1ccccc1 [Example 13, 3-[5-({(1R,2S)-2-[(2,2-difluoropropanoyl)amino]-1-phenylpropyl}oxy)-1H-indazol-1-yl]-N-[2-(2-oxopyrrolidin-1-yl)ethyl]benzamide] | 38.4 nM
C[C@H](NC(=O)C(C)(F)F)[C@H](Oc1ccc2c(cnn2-c2cccc(C(=O)NCCN3C(=O)OC(C)(C)C3=O)c2)c1)c1ccccc1 [Example 14, 3-[5-({(1R,2S)-2-[(2,2-difluoropropanoyl)amino]-1-phenylpropyl}oxy)-1H-indazol-1-yl]-N-[2-(5,5-dimethyl-2,4-dioxo-1,3-oxazolidin-3-yl)ethyl]benzamide] | 40.2 nM
C[C@H](NC(=O)C(C)(F)F)[C@H](Oc1ccc2c(cnn2-c2cccc(C(=O)N3C[C@H](O)C[C@H]3C(N)=O)c2)c1)c1ccccc1 [Example 20, (4R)-1-({3-[5-({(1R,2S)-2-[(2,2-difluoropropanoyl)amino]-1-phenylpropyl}oxy)-1H-indazol-1-yl]phenyl}carbonyl)-4-hydroxy-L-prolinamide] | 75.9 nM
C[C@H](NC(=O)C1(C#N)CC1)[C@H](Oc1ccc2c(cnn2-c2cccc(C(=O)N3CCC[C@@H]3C(N)=O)c2)c1)c1ccccc1 [Example 21, 1-{[3-(5-{[(1R,2S)-2-{-[1(1-cyanocyclopropyl)carbonyl]amino}-1-phenylpropyl]oxy}-1H-indazol-1-yl)phenyl]carbonyl}-D-prolinamide] | 2.91 nM
